molecular target: T1, human PPARγ2 (Homo sapiens, UniProt P37231); assay: PPARγ activation activity, Gal4-PPARγ2 LBD luciferase transfection assay in COST cells; type: cell-based; conditions: Gal4-human PPARγ2 LBD luciferase reporter, 16 hours, rosiglitazone = 100%
T1 construct: the amino acids 182 to 505 of human PPARγ2; expressed in transfected cells
T1 sequence (P37231 182-505): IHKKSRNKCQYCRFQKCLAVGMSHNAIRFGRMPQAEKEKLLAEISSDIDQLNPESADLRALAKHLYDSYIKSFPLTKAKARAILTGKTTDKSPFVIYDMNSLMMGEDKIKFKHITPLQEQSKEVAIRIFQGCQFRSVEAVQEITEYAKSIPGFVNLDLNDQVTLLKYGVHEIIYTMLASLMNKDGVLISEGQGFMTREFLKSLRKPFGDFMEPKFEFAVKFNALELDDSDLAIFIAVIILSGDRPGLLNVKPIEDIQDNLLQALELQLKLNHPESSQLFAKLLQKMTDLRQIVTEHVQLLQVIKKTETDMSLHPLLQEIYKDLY
Procedure: The agonistic activity of the compounds of the invention on PPARγ was measured based on the transfection assay using COST cells (DS Pharma Biomedical Co., Ltd., Osaka, Japan), which are the cell line derived from the kidney of the African green monkey. COST cells were cultured under 5% CO2 concentration, and DMEM medium containing 10% fetal bovine serum, glutamic acid, and antibiotics was used as a medium.
As an expression vector, a chimera in which DNA binding domain of Gal4, which is a yeast transcription factor, and ligand binding domain of human PPARγ2 are fused, i.e., a fused product between the amino acids 1 to 147 of Gal4 transcription factor and the amino acids 182 to 505 of human PPARγ2, was used. Furthermore, as a reporter vector, a firefly luciferase containing five copies of Gal4 recognition sequence in the promoter region was used. Plasmid transfection to the cells was performed according to a method which uses jetPEI (trade name, manufactured by Funakoshi Co., Ltd., Tokyo, Japan). Furthermore, β-galactosidase expression vector was employed as an internal standard.
After the transfection of the cells, the medium was replaced with a DMEM medium (containing 1% serum) added with the compound, and the cells were further cultured for 16 hours. After that, the luciferase activity and β-galactosidase activity in the cell lysis solution were measured.
For the present test, dimethyl sulfoxide (DMSO) was used for dissolution and dilution of the test compounds, and during the cell treatment, the DMSO concentration in DMEM medium (containing 1% serum) was adjusted to 0.1%. As a positive compound, rosiglitazone (trade name, manufactured by ALEXIS Corporation, Switzerland) was used. The luciferase activity (%) of the test compounds (1 to 30 μmol/L) was calculated when the luciferase activity of rosiglitazone (3 to 10 μmol/L) is 100% and the luciferase activity in the absence of the test compound is 0%. The 50% effective concentration of the test compound (EC50, 50% effect concentration) was calculated by using SAS Preclinical Package Ver 5.0 (trade name, manufactured by SAS institute Japan Co., Tokyo, Japan), which is a statistical analysis program.
Under the same condition, the PPARγ activation activity of telmisartan, i.e., EC50, was 1 to 5 μM. In addition, it was confirmed that compounds of Examples not shown in Table 2 also have PPARγ activation activity at a concentration of 30 μM.

First: CCCCc1nc(C2CC2)n(-c2ncc(OC)cn2)c(=O)c1Cc1ccc(-c2ccccc2S(=O)(=O)NC(=O)C2CC2)cc1 [Example 15, N-{4′-{[4-butyl-2-cyclopropyl-1-(5-methoxypyrimidin-2-yl)-6-oxo-1,6-dihydropyrimidin-5-yl)methyl)biphenyl-2-ylsulfonyl]cyclopropanecarboxamide]
Second: CCCCc1nc(C2CC2)n(-c2ncc(OCC)cn2)c(=O)c1Cc1ccc(-c2ccccc2S(=O)(=O)NC(=O)C2CC2)cc1 [Example 16, N-{4′-{[4-butyl-2-cyclopropyl-1-(5-ethoxypyrimidin-2-yl)-6-oxo-1,6-dihydropyrimidin-5-yl]methyl}biphenyl-2-ylsulfonyl}cyclopropanecarboxamide]
The EC50 of the first is 2.2-fold lower: 1050 nM for the first, 2350 nM for the second. The first is the more potent here.

`CCCCc1nc(C)n(-c2ncc(OCC)cn2)c(=O)c1Cc1ccc(-c2ccccc2S(=O)(=O)NC(=O)C2CCCC2)cc1` [Example 9, N-{4′-{[4-butyl-1-(5-ethoxypyrimidin-2-yl)-2-methyl-6-oxo-1,6-dihydropyrimidin-5-yl]methyl}biphenyl-2-ylsulfonyl}cyclopentanecarboxamide] and `CCCCc1nc(C)n(-c2ncc(OCC)cn2)c(=O)c1Cc1ccc(-c2ccccc2S(=O)(=O)NC(=O)C2CC2)cc1` [Example 8, N-{4′-{[4-butyl-1-(5-ethoxypyrimidin-2-yl)-2-methyl-6-oxo-1,6-dihydropyrimidin-5-yl]methyl}biphenyl-2-ylsulfonyl}cyclopropanecarboxamide] are within 1.5-fold of each other in EC50: 3520 nM for the first, 3690 nM for the second.

First: CCCCc1nc(C(C)C)n(-c2ncc(OCC)cn2)c(=O)c1Cc1ccc(-c2ccccc2S(=O)(=O)NC(=O)C2CC2)cc1 [Example 14, N-{4′-{[4-butyl-1-(5-ethoxypyrimidin-2-yl)-2-isopropyl-6-oxo-1,6-dihydropyrimidin-5-yl)methyl)biphenyl-2-ylsulfonyl]cyclopropanecarboxamide]
Second: CCCCc1nc(CC)n(-c2ncc(OCC)cn2)c(=O)c1Cc1ccc(-c2ccccc2S(=O)(=O)NC(=O)C2CC2)cc1 [Example 13, N-{4′-{[4-butyl-1-(5-ethoxypyrimidin-2-yl)-2-ethyl-6-oxo-1,6-dihydropyrimidin-5-yl]methyl}biphenyl-2-ylsulfonyl}cyclopropanecarboxamide]
The EC50 of the first is 2.1-fold lower: 1360 nM for the first, 2790 nM for the second.

`CCCCc1nc(C2CCC2)n(-c2ncc(OCC)cn2)c(=O)c1Cc1ccc(-c2ccccc2S(=O)(=O)NC(=O)C2CC2)cc1` [Example 17, N-{4′-{[4-butyl-2-cyclobutyl-1-(5-ethoxypyrimidin-2-yl)-6-oxo-1,6-dihydropyrimidin-5-yl]methyl}biphenyl-2-ylsulfonyl}cyclopropanecarboxamide] and `CCCCc1nc(C2CCCC2)n(-c2ncc(OCC)cn2)c(=O)c1Cc1ccc(-c2ccccc2S(=O)(=O)NC(=O)C2CC2)cc1` [Example 18, N-{4′-{[4-butyl-2-cyclopentyl-1-(5-ethoxypyrimidin-2-yl)-6-oxo-1,6-dihydropyrimidin-5-yl]methyl}biphenyl-2-ylsulfonyl}cyclopropanecarboxamide] are within 1.5-fold of each other in EC50: 960 nM for the first, 710 nM for the second.

First: CCCCc1nc(C)n(-c2ncc(OC(F)F)cn2)c(=O)c1Cc1ccc(-c2ccccc2S(=O)(=O)NC(=O)C2CC2)cc1 [Example 11, N-{4′-{{4-butyl-1-[5-(difluoromethoxy)pyrimidin-2-yl]-2-methyl-6-oxo-1,6-dihydropyrimidin-5-yl}methyl}biphenyl-2-ylsulfonyl}cyclopropanecarboxamide]
Second: CCCCc1nc(C2CCCCC2)n(-c2ncc(OCC)cn2)c(=O)c1Cc1ccc(-c2ccccc2S(=O)(=O)NC(=O)C2CC2)cc1 [Example 19, N-{4′-{[4-butyl-2-cyclohexyl-1-(5-ethoxypyrimidin-2-yl)-6-oxo-1,6-dihydropyrimidin-5-yl]methyl}biphenyl-2-ylsulfonyl}cyclopropanecarboxamide]
The EC50 of the first is 6.6-fold higher: 3370 nM for the first, 510 nM for the second.

In the case of `CCCc1nc2c(C)cc(-c3nc4ccccc4n3C)cc2n1Cc1ccc(-c2ccccc2C(=O)O)cc1` [telmisartan, reference compound], the EC50 is reported as 1000 to 5000 nM.

molecular target: T2, angiotensin II type 1 receptor (Oryctolagus cuniculus, UniProt P34976); assay: Angiotensin II antagonistic activity in isolated rabbit blood vessels (angiotensin II-induced contraction of thoracic aorta ring); conditions: 0.1 μM compound, angiotensin II (10 nM)-induced contraction, read-out: Angiotensin II activity inhibition rate (%) at 0.1 μM concentration
T2 construct: By using a specimen of isolated rabbit blood vessels; from tissue; host or cells: rabbit thoracic aorta ring (New Zealand White, male)
T2 sequence (P34976 1-359): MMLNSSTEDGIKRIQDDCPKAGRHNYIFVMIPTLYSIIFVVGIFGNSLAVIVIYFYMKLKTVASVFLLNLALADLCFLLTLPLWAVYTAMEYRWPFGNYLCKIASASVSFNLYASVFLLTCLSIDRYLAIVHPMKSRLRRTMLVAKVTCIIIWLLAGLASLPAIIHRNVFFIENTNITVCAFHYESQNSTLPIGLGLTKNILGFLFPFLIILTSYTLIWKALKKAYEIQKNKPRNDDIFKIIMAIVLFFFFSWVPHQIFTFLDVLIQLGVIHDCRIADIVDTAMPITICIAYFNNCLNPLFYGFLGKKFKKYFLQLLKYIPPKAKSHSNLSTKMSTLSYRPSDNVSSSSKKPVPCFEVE
Procedure: By using a specimen of isolated rabbit blood vessels, antagonistic activity of the compounds of the invention against angiotensin II type 1 receptor was estimated from a dose-response curve of angiotensin II-induced blood vessel contraction. Specifically, the specimen of thoracic aorta ring of a rabbit (New Zealand White: male, 2.4 to 3.0 kg) was suspended in a magnus bath filled with Krebs-Henseleite buffer (composition: 118 mM NaCl, 4.7 mM KCl, 2.55 mM CaCl2, 1.18 mM MgSO4, 1.18 mM KH2PO4, 24.88 mM NaHCO3, and 11.1 mM D-glucose), and angiotensin II (10 nM)-induced contraction was obtained in the presence of the compounds of each example (1 nmol to 10 μmol/L). During the measurement, the inside temperature of the magnus bath was maintained at 37° C. and the bath was continuously ventilated with a sufficient amount of mixed gas (95% O2 and 5% CO2). The angiotensin II-induced contraction was converted into a relative value (%) that is based on the angiotensin II (10 nM)-induced contraction in the absence of the compounds of each example. From the concentration-response curve obtained therefrom, 50% inhibition concentration (IC50 value) was calculated by using SAS Preclinical Package Ver 5.0 (trade name, manufactured by SAS institute Japan Co., Tokyo, Japan), which is a statistical analysis program.

First: CCCCc1nc(C)n(-c2ncc(OC)cn2)c(=O)c1Cc1ccc(-c2ccccc2S(=O)(=O)NC(=O)C2CCCCC2)cc1 [Example 5, N-{4′-{[4-butyl-1-(5-methoxypyrimidin-2-yl)-2-methyl-6-oxo-1,6-dihydropyrimidin-5-yl]methyl}biphenyl-2-ylsulfonyl}cyclohexanecarboxamide]
Second: CCCCc1nc(C)n(-c2ncc(OC)cn2)c(=O)c1Cc1ccc(-c2ccccc2S(=O)(=O)NC(=O)C2CCCC2)cc1 [Example 4, N-{4′-{[4-butyl-1-(5-methoxypyrimidin-2-yl)-2-methyl-6-oxo-1,6-dihydropyrimidin-5-yl]methyl}biphenyl-2-ylsulfonyl}cyclopentanecarboxamide]
The inhibition at 0.1 µM of the first is lower: 92.4% for the first, 100% for the second.

Going from `CCCCc1nc(C)n(-c2ncc(OC)cn2)c(=O)c1Cc1ccc(-c2ccccc2S(=O)(=O)NC(=O)C2CC2)cc1` [Example 3, N-{4′-{[4-butyl-1-(5-methoxypyrimidin-2-yl)-2-methyl-6-oxo-1,6-dihydropyrimidin-5-yl]methyl}biphenyl-2-ylsulfonyl}cyclopropanecarboxamide] to `CCCCc1nc(C)n(-c2ncc(OCC)cn2)c(=O)c1Cc1ccc(-c2ccccc2S(=O)(=O)NC(=O)C2CC2)cc1` [Example 8, N-{4′-{[4-butyl-1-(5-ethoxypyrimidin-2-yl)-2-methyl-6-oxo-1,6-dihydropyrimidin-5-yl]methyl}biphenyl-2-ylsulfonyl}cyclopropanecarboxamide], the inhibition at 0.1 µM falls from 90% to 77.5%.

First: CCCCc1nc(C)n(-c2ncc(OC)cn2)c(=O)c1Cc1ccc(-c2ccccc2S(=O)(=O)NC(=O)CC)cc1 [Example 1, N-{4′-{[4-butyl-1-(5-methoxypyrimidin-2-yl)-2-methyl-6-oxo-1,6-dihydropyrimidin-5-yl]methyl}biphenyl-2-ylsulfonyl}propionamide]
Second: CCCCCC(=O)NS(=O)(=O)c1ccccc1-c1ccc(Cc2c(CCCC)nc(C)n(-c3ncc(OC)cn3)c2=O)cc1 [Example 2, N-{4′-{[4-butyl-1-(5-methoxypyrimidin-2-yl)-2-methyl-6-oxo-1,6-dihydropyrimidin-5-yl]methyl}biphenyl-2-ylsulfonyl}hexanamide]
The inhibition at 0.1 µM of the first is lower: 71.7% for the first, 91.9% for the second.

Compared with `CCCCc1nc(C)n(-c2ncc(OCC)cn2)c(=O)c1Cc1ccc(-c2ccccc2S(=O)(=O)NC(=O)C2CCCC2)cc1` [Example 9, N-{4′-{[4-butyl-1-(5-ethoxypyrimidin-2-yl)-2-methyl-6-oxo-1,6-dihydropyrimidin-5-yl]methyl}biphenyl-2-ylsulfonyl}cyclopentanecarboxamide], `CCCCc1nc(C)n(-c2ncc(OCC)cn2)c(=O)c1Cc1ccc(-c2ccccc2S(=O)(=O)NC(=O)C2CCCCC2)cc1` [Example 10, N-{4′-{[4-butyl-1-(5-ethoxypyrimidin-2-yl)-2-methyl-6-oxo-1,6-dihydropyrimidin-5-yl]methyl}biphenyl-2-ylsulfonyl}cyclohexanecarboxamide] is lower in inhibition at 0.1 µM: 100% for the first, 81.9% for the second.

Source: patent publication US20120122906A1, “NOVEL SULFONAMIDE DERIVATIVE AND PHARMACEUTICAL PRODUCT CONTAINING SAME” (KOWA COMPANY, LTD., priority 2009, published 2012)
